These are literature values, as cited in patent US6576673B2, “Method of deterring woodpeckers” (priority 2001, dated 2003).

Each structure is given as a SMILES string.

For this data set, the system named is golden fronted adult woodpeckers. As to conditions: painted or applied to a surface of a utility pole; smaller golden fronted adult woodpeckers.

With `CC1=CC(=O)CC(C)(C)C1` [Isophorone, 3,5,5-trimethyl-2-cyclohexen-one-1], the repelling woodpeckers result is given as “effective in repelling woodpeckers”.
